TGI and GI50 data for 15 molecules are collected here from PubChem BioAssay (NCI).

The structures appear in SMILES notation.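 Cultured in 96-well plates, cells were exposed to test compound for 48 hours across five concentrations. At the GI50, growth is halved. TGI: total growth inhibition.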 Bounds are passed on as bounds.

A word on the TGI: it is the concentration at which net growth stops. The low end stands for greater sensitivity of the cells, the high end for lower sensitivity of the cells. The term GI50 denotes the concentration that inhibits growth by half.

Some test systems named below: HCT-15 colon; ACHN renal; SW-620 colon; OVCAR-8 ovarian; OVCAR-5 ovarian; UACC-257 melanoma; KM12 colon; PC-3 prostate; BT-549 breast; MCF7 breast.
Holding throughout (test): DTP human tumour cell line panel, 48 h

As to `Cn1nc(-c2ccccc2)c2c(/C=C/c3ccc(Cl)cc3)onc2c1=O`, the concentration for total growth inhibition (TGI) in the experiment on HCT-15 colon was over 100 µM; in the experiment with ACHN renal, over 100 µM; with SW-620 colon, over 100 µM; with OVCAR-8 ovarian, 84.3 µM.

Regarding `O=C1c2cccc([N+](=O)[O-])c2C(=O)c2nccnc21`, the total growth inhibition concentration (TGI) was determined as 9.6 µM in the experiment on OVCAR-5 ovarian; 2.92 µM in the experiment on HCT-15 colon; 15.1 µM with ACHN renal; 3.92 µM in the experiment with SW-620 colon; 7.09 µM in the experiment on OVCAR-8 ovarian; 1.66 µM in the experiment on UACC-257 melanoma.

Take `O=C(CN(Cc1ccccc1)Cc1ccccc1)N1CCc2c([nH]c3ccccc23)C1c1cccnc1` (configuration not stated): the total growth inhibition concentration (TGI) with OVCAR-5 ovarian was 34.7 µM; in the experiment with HCT-15 colon, over 100 µM; in the experiment on ACHN renal, over 100 µM; in the experiment on KM12 colon, 26.3 µM; in the experiment with SW-620 colon, over 100 µM; in the experiment on OVCAR-8 ovarian, over 100 µM. Besides, in the experiment with UACC-257 melanoma, the TGI is over 100 µM.

Regarding `COC(=O)C(=O)C(C#N)c1cccc(Cl)c1` (configuration not stated), the concentration for total growth inhibition (TGI) with OVCAR-5 ovarian, in the experiment with HCT-15 colon, in the experiment with ACHN renal, in the experiment with KM12 colon, in the experiment with SW-620 colon and in the experiment with OVCAR-8 ovarian was over 100 µM throughout. The same molecule had a TGI with UACC-257 melanoma of over 100 µM.

For the molecule `CC12CCCC(C#N)(C1)OC2=O` (configuration not stated), the TGI with OVCAR-5 ovarian, with ACHN renal, in the experiment with KM12 colon, in the experiment with SW-620 colon, with OVCAR-8 ovarian and with UACC-257 melanoma was over 100 µM throughout.

Regarding `Cc1cc2nc3c(=O)[nH]c(=O)nc-3n(CC(O)C(O)C(O)CO)c2cc1N` (configuration not stated), the total growth inhibition concentration (TGI) in the experiment with HCT-15 colon, with ACHN renal, in the experiment with KM12 colon, in the experiment with SW-620 colon and with OVCAR-8 ovarian was over 100 µM in each case.

As for `COc1ccc(CN2C(=O)/C(=C\C(=O)c3ccc(OCCN4CCCC4)cc3)c3ccccc32)cc1`, the GI50 with OVCAR-5 ovarian is 1.78 µM; in the experiment on HCT-15 colon it was 1.65 µM; with ACHN renal it was 1.66 µM; in the experiment on KM12 colon, 11.1 µM; in the experiment with OVCAR-8 ovarian it was 2.66 µM; with PC-3 prostate, 2.35 µM. Also, the figures for the GI50 with UACC-257 melanoma and with BT-549 breast were 20.2 µM and 10.6 µM, respectively. The TGI in the experiment with OVCAR-5 ovarian is 4.76 µM; in the experiment on HCT-15 colon, 3.24 µM; in the experiment on ACHN renal it was 3.02 µM; in the experiment with KM12 colon, 34.7 µM; in the experiment on OVCAR-8 ovarian it was 5.78 µM; in the experiment with PC-3 prostate, 4.83 µM. Moreover, the figures for the TGI with UACC-257 melanoma and with BT-549 breast were 40.3 µM and 23.3 µM, respectively.

Consider `N.N.N.N.N.N#Cc1nn[n-]n1.[Cl-].[Co+3]`, for which the GI50 with OVCAR-5 ovarian, in the experiment with HCT-15 colon, with ACHN renal, in the experiment on KM12 colon, in the experiment with SW-620 colon and with OVCAR-8 ovarian was over 100 µM throughout. For the same molecule, the GI50 in the experiment with UACC-257 melanoma is over 100 µM. Also, the TGI in the experiment with OVCAR-5 ovarian, in the experiment on HCT-15 colon, in the experiment on ACHN renal, with KM12 colon, in the experiment with SW-620 colon and with OVCAR-8 ovarian was over 100 µM each time. This molecule also showed a concentration for total growth inhibition (TGI) with UACC-257 melanoma of over 100 µM.

Turning to `Cc1cc2c(C(=O)NCC#N)cccc2n1-c1nc2c(c(NCc3ccccc3)n1)CCCC2`, the GI50 was 0.395 µM in the experiment on OVCAR-5 ovarian; 0.192 µM in the experiment on HCT-15 colon; 0.28 µM in the experiment with ACHN renal; 0.242 µM in the experiment with KM12 colon; 0.355 µM in the experiment on SW-620 colon; 0.34 µM in the experiment with OVCAR-8 ovarian. Further, the GI50 in the experiment on MCF7 breast was 0.25 µM; with BT-549 breast, 0.251 µM. Also, the total growth inhibition concentration (TGI) turned out to be 1.94 µM in the experiment on OVCAR-5 ovarian; 0.404 µM in the experiment on HCT-15 colon; 1.24 µM in the experiment with ACHN renal; 0.643 µM with KM12 colon; 1.29 µM in the experiment on SW-620 colon; 1.98 µM with OVCAR-8 ovarian. Moreover, the TGI in the experiment with MCF7 breast is 8.17 µM; in the experiment with BT-549 breast, 0.7 µM.

As for `O=C1C(Cl)=C(Cl)C(=O)N1c1ccccc1Cl`, the TGI in the experiment with OVCAR-5 ovarian was over 100 µM; with HCT-15 colon, over 88.4 µM; in the experiment on ACHN renal it was over 100 µM; in the experiment on KM12 colon it was over 100 µM; in the experiment with SW-620 colon it was over 95 µM; with OVCAR-8 ovarian it was over 100 µM. In the experiment on UACC-257 melanoma, this molecule had a TGI of over 100 µM.

With `CN(C)CCCOc1ccc(/C=C2/CCC/C(=C/c3ccc(OCCCN(C)C)cc3)C2=O)cc1`, the total growth inhibition concentration (TGI) in the experiment on OVCAR-5 ovarian came out at 0.644 µM; in the experiment on HCT-15 colon, 2.5 µM; with ACHN renal it was 4.13 µM; in the experiment with KM12 colon, 2.93 µM; in the experiment on SW-620 colon, 3.73 µM; in the experiment with OVCAR-8 ovarian, 6.5 µM. In the experiment on UACC-257 melanoma, this molecule had a TGI of 3.93 µM.

Consider `COc1cccc(N2C(=O)/C(=C/c3ccc(N(CCC#N)CCC#N)cc3)N=C2c2cc([N+](=O)[O-])ccc2Cl)c1`, for which the TGI with OVCAR-5 ovarian, in the experiment with HCT-15 colon, with ACHN renal, with KM12 colon, in the experiment on SW-620 colon and in the experiment on OVCAR-8 ovarian was over 100 µM in each case. This molecule also had a concentration for total growth inhibition (TGI) in the experiment with UACC-257 melanoma of over 100 µM.

In the case of `O=C(CCC(=O)Nc1ccc(Cl)cc1)CC(=O)c1ccc2ccccc2c1`, the concentration for total growth inhibition (TGI) in the experiment on OVCAR-5 ovarian, with HCT-15 colon, with ACHN renal, with KM12 colon, in the experiment with SW-620 colon and in the experiment on OVCAR-8 ovarian was over 100 µM in each case. Moreover, the TGI in the experiment with UACC-257 melanoma was over 100 µM.

For the molecule `CCOC(=O)NC(=O)c1cn(CCCCCCCCCCC(=O)NCCCN2CCN(CCCNC(=O)CCCCCCCCCCn3cc(C(=O)NC(=O)OCC)c(=O)[nH]c3=O)CC2)c(=O)[nH]c1=O`, the total growth inhibition concentration (TGI) with OVCAR-5 ovarian, in the experiment with HCT-15 colon, in the experiment on ACHN renal, with KM12 colon, with SW-620 colon and with OVCAR-8 ovarian was over 100 µM throughout. This molecule also had a TGI with UACC-257 melanoma of over 100 µM.

As to `O=C(Nc1ccccc1)n1cc(-c2ccccn2)c(N2CCOCC2)n1`, the TGI in the experiment with HCT-15 colon is over 100 µM; in the experiment on ACHN renal, over 100 µM; with KM12 colon it was 62.7 µM; in the experiment on SW-620 colon, over 100 µM; with OVCAR-8 ovarian it was over 100 µM; in the experiment with UACC-257 melanoma it was over 100 µM.
